Positions of bridges follow the written chain, without caps; N, C: chain ends. Residues, ends and D or L forms follow the SMILES beside them. No end group written: not given here.
How the values were obtained:
experimental animals = experiment: Diuretic activity following infusion into experimental animals (FIG. 12B); type: in vivo; conditions: urinary flow rate as percentage of baseline
Description: FIG. 12 graphically portrays a comparison of the activities of selected compounds of the present invention, in which Panel A depicts a dose response relationship comparing the vasorelaxant properties of rANVP […] and [Ala^130 ]rANVP(126-150) and Panel B portrays a comparison of the diuretic activities of the same two peptides following infusion into experimental animals. Urinary flow rates during and post infusion (periods 7-24) were compared to control (baseline) flow rates (periods 1-6) and data are expressed as the percentage of baseline control values;
In table VII, various ANVP compounds were tested over a ten-fold range of concentration. Most of the peptides induced diuresis and natriuresis with few exceptions ([D-Asp^135 ]rANVP(126-150), [D-Val^137 ] rANVP(126-150)]). […] This is perhaps best observed with the ANVP analog [Ala^130 ]rANVP(126-150). […] Thus, it appears that [Ala^130 ]rANVP(126-150), rANVP(126-147) and related peptide forms represent classes of compounds which may exert renal selectivity. Such compounds could have important therapeutic value.

[1] = tested on: precontracted rabbit or rat aortic preparations; experiment: Vasorelaxant potency on precontracted aortic rings; conditions: for vasorelaxant potency in words: precontracted vascular preparations; for IC50: thoracic aortic segments precontracted with histamine or norepinephrine, read-out: IC50 (concentration producing half-maximal relaxation of the precontracted tissue)
Method: Synthetic ANVP compounds were compared to partially purified (gel filtration step) and purified (HPLC) native ANVP compounds (See FIGS. 3A-D) for their ability to relax histamine-contracted aortic rings. Rings were suspended in 10 ml aerated Kreb's buffer under 1.5 gm passive tension. Rings were precontracted with 5 X 10^-6 M histamine, washed and allowed to return to baseline tension, as described ([…]., supra). Increasing amounts of purified or synthetic ANVP compounds were then added in cumulative fashion. […] The relaxation effects of various ANVP compounds on precontracted rabbit or rat aortic preparations are shown in Table III. | Thoracic aortic segments were precontracted with histamine or | norepinephrine as previously described. Various doses of ANVP compounds | were then added and relaxation of the precontracted state was monitored. | Data are expressed as the concentration of each peptide required to | produce a halfmaximal relaxation of the precontracted tissue (IC50).

[2] = tested on: ANVP receptor sites on cultured bovine vascular smooth muscle cells; experiment: Displacement of specific [125I]rANVP(126-150) binding on cultured smooth muscle cells; conditions: for Ki: concentration of half-maximal displacement
Description: Specific and saturable binding is a necessary component of a hormone/receptor interaction.
Various concentrations of the peptides described were examined for […]

isolated rat kidney = experiment: Renal function in the isolated perfused rat kidney; conditions: dose 0.1 μg; experimental period E; mean of 3-8 experiments
intact rats = experiment: Natriuretic and diuretic effects in intact rats (bolus injection); type: in vivo, rat; conditions: dose 3670 pmol/kg
Method: Synthetic ANVP compounds […] hANVP(127-151) were also found to be natriuretic in the intact rat. These compounds were administered as a bolus injection to Inactin anesthetized rats (100 mg/kg, average weight 399 g) which were maintained on a constant infusion of normal saline at 2.2 ml/hr. […] Data are expressed as mean±SE.

[3] = tested on: rabbit thoracic aortic rings; experiment: Relaxation of histamine-contracted rabbit thoracic aortic rings; conditions: tested as described for the expressed material
Method: Synthetic ANVP compounds were compared to partially purified (gel filtration step) and purified (HPLC) native ANVP compounds (See FIGS. 3A-D) for their ability to relax histamine-contracted aortic rings. Rings were suspended in 10 ml aerated Kreb's buffer under 1.5 gm passive tension. Rings were precontracted with 5 X 10^-6 M histamine, washed and allowed to return to baseline tension, as described (Kleinert, H. D., supra). Increasing amounts of purified or synthetic ANVP compounds were then added in cumulative fashion.
The dried methanol soluble and ammonium acetate eluted material was resolubilized in 0.5 ml of distilled H2 O and tested for biological activity using the precontracted rabbit thoracic aortic ring model described in Kleinert, et al., Hypertension 6:Suppl. 1:143-146 (1984). Equal volumes of material reconstituted from crude lyophilized media, methanol soluble protein or protein eluted from SP-Sephadex® with 1.0 M ammonium acetate were compared using aortic rings precontracted with 5 μM histamine. Material synthesized by yeast cultures whose plasmids encoded proANVP (amino acids 26-152) (YEp-α-NF-9) and proANVP (amino acids 121-152) (YEp-α-NF-5), as well as the corresponding inverse orientations (YEp-α-NF-12 and YEp-α-NF-7, respectively), were compared.
A fraction of the crude bacteria extract was subsequently boiled for 5 minutes and lowered to pH 2.5 for 1 hour. […]

**Q.** For `CC[C@H](C)[C@@H]1NC(=O)[C@H](CCCNC(=N)N)NC(=O)[C@H](CC(=O)O)NC(=O)[C@H]([C@@H](C)CC)NC(=O)[C@H](CCCNC(=N)N)NC(=O)CNC(=O)CNC(=O)[C@H](C)NC(=O)[C@@H](NC(=O)[C@H](CO)NC(=O)[C@H](CO)NC(=O)[C@@H](N)CCCNC(=N)N)CSSC[C@@H](C(=O)N[C@@H](CC(N)=O)C(=O)N[C@@H](CO)C(=O)N[C@@H](Cc2ccccc2)C(=O)N[C@@H](CCCNC(=N)N)C(=O)N[C@@H](Cc2ccc(O)cc2)C(=O)O)NC(=O)CNC(=O)[C@H](CC(C)C)NC(=O)CNC(=O)[C@H](CO)NC(=O)[C@H](CCC(N)=O)NC(=O)[C@H](C)NC(=O)CNC1=O` [[Ala^130]rANVP(126-150)], which “diuretic effects in vivo compared with rANVP(126-150) (FIG. 12b)” value (experimental animals) is on record?
**A.** The value was “nearly equipotent”.

**Q.** What about the “vasorelaxant potency in words” value [1] of the same molecule?
**A.** Its value is “substantially less potent than rANVP(126-150)”.

**Q.** What about the “vasorelaxant potency in words” value ([1]; listed as [Ala^130 ] rANVP) of the same molecule?
**A.** The value was “essentially inactive”.

**Q.** What about the IC50 [1] of the same molecule?
**A.** Its IC50 is greater than 100 nM.

**Q.** And the “binding activity in smooth muscle cells relative to rANVP(126-150), in words” value [2]?
**A.** Its value is “comparable binding activity to rANVP(126-150)”.

**Q.** And the Ki ([2]; Series B smooth muscle cells)?
**A.** The Ki was 11.1 nM.

**Q.** Which results are given for `CC[C@H](C)[C@@H]1NC(=O)[C@H](CCCNC(=N)N)NC(=O)[C@H](CC(=O)O)NC(=O)[C@H]([C@@H](C)CC)NC(=O)[C@H](CCCNC(=N)N)NC(=O)CNC(=O)CNC(=O)[C@H](Cc2ccccc2)NC(=O)[C@@H](NC(=O)[C@H](CO)NC(=O)[C@H](CO)NC(=O)[C@@H](N)CCCNC(=N)N)CSSC[C@@H](C(=O)N[C@@H](CC(N)=O)C(=O)N[C@@H](CO)C(=O)N[C@@H](Cc2ccccc2)C(=O)N[C@@H](CCCNC(=N)N)C(=O)N[C@@H](Cc2ccc(O)cc2)C(=O)O)NC(=O)CNC(=O)[C@H](CC(C)C)NC(=O)[C@@H](C)NC(=O)[C@H](CO)NC(=O)[C@H](CCC(N)=O)NC(=O)[C@H](C)NC(=O)CNC1=O` [[D-Ala^142]rANVP(126-150), H-Arg-Ser-Ser-Cys-Phe-Gly-Gly-Arg-Ile-Asp-Arg-Ile-Gly-Ala-gln-Ser-[D-Ala]-Leu-Gly-Cys-Asn-Ser-Phe-Arg-Tyr-OH]?
**A.** .V (urine flow rate) (isolated rat kidney): 58.5 µL/min; GFR (isolated rat kidney): 0.75 mL/min; UNa.V (urinary sodium excretion rate) (isolated rat kidney): 2.50 μEq/min; vasorelaxant potency in words [1]: most potent; IC50 [1]: 0.62 nM; Ki ([2]; Series A smooth muscle cells): 0.6 nM; Peak Na+ Excr. (intact rats): 9.1 ± 0.9 µmol/min; Peak Urine Vol. (intact rats): 66.3 ± 3 µL/min

**Q.** `CC[C@H](C)[C@@H]1NC(=O)[C@H](CCCNC(=N)N)NC(=O)[C@H](CC(=O)O)NC(=O)[C@H](CCSC)NC(=O)[C@H](CCCNC(=N)N)NC(=O)CNC(=O)CNC(=O)[C@H](Cc2ccccc2)NC(=O)[C@@H](NC(=O)[C@H](CO)NC(=O)[C@@H](N)CO)CSSC[C@@H](C(=O)N[C@@H](CC(N)=O)C(=O)N[C@@H](CO)C(=O)N[C@@H](Cc2ccccc2)C(=O)N[C@@H](CCCNC(=N)N)C(=O)N[C@@H](Cc2ccc(O)cc2)C(=O)O)NC(=O)CNC(=O)[C@H](CC(C)C)NC(=O)CNC(=O)[C@H](CO)NC(=O)[C@H](CCC(N)=O)NC(=O)[C@H](C)NC(=O)CNC1=O` [hANVP(128-151)] (H-SSCFGGRMDRIGAQSGLGCNSFRY-OH; disulfide 3-19) was tested. Which Ki ([2]; Series A smooth muscle cells) did it give?
**A.** The Ki was 7 nM.

**Q.** And the “biological (vasodilatory) activity of expression products, in words” value [3]?
**A.** Its value is “displayed the full range of biological activities”.

**Q.** With “hANVP(126-151): human product produced in CHO cells, as printed; probably prohANVP(26-151) (RRSSCFGGRMDRIGAQSGLGCNSFRY; ends and bridges not checked; cysteine pairing not given here; UniProt P01160 126-151, looked up, fragment)” as the molecule, how does the “biological (vasodilatory) activity of expression products, in words” value [3] read?
**A.** Its value is “exhibited biological activity similar to that observed above”.

— patent publication US5212286A, “Atrial Natriuretic/vasodilator peptide compounds” (Scios Nova Inc., priority 1986, dated 1993)
